Measured values from ChEMBL document CHEMBL1287809, “Ixorapeptide I and ixorapeptide II, bioactive peptides isolated from Ixora coccinea” (Bioorg Med Chem Lett, 2010).
In brackets after ≈: the same amount, converted by molar mass. Where a SMILES comes first, the peptide text is derived from it. The star is where a group is joined. Fmoc = O=C(OCC1c2ccccc2-c2ccccc21)*

Legend:
HepG2 = test: Cytotoxicity against human HepG2 cells by MTT assay; format: functional, cell-based
[1] = Antiaggregatory activity in human platelets assessed as inhibition of collagen-induced platelet aggregation by aggregometry; format: functional, cell-based
[2] = Cytotoxicity against human Hep3B cells by MTT assay; format: functional, cell-based, Hep 3B2
[3] = Antiaggregatory activity in human platelets assessed as inhibition of thrombin-induced platelet aggregation by aggregometry; format: functional, cell-based
Ca9-22 = test: Cytotoxicity against human Ca9-22 cells by MTT assay; format: functional, cell-based
A549 = test: Cytotoxicity against human A549 cells by MTT assay; format: functional, cell-based
MDA-MB-231 = test: Cytotoxicity against human MDA-MB-231 cells by MTT assay; format: functional, cell-based
MCF7 = test: Cytotoxicity against human MCF7 cells by MTT assay; format: functional, cell-based
[4] = Antiinflammatory activity in human neutrophils assessed as inhibition of FMLP/CB-induced elastase release; format: functional, cell-based, Neutrophil; conditions: for IC50: Homo sapiens, Neutrophil
[5] = Antiinflammatory activity in human neutrophils assessed as inhibition of FMLP/CB-induced superoxide anion release; format: functional, cell-based; conditions: Neutrophil
[6] = Antiinflammatory activity in human neutrophils assessed as inhibition of FMLP/CB-induced elastase release at 10 ug/ml; format: functional; conditions: Neutrophil
[7] = Antiinflammatory activity in human neutrophils assessed as inhibition of FMLP/CB-induced superoxide anion release at 10 ug/ml; format: functional; conditions: Neutrophil
[8] = Antiinflammatory activity in human Neutrophil assessed as inhibition of elastase release at 10 ug/ml; format: functional, cell-based
[9] = Antiinflammatory activity in human Neutrophil assessed as inhibition of superoxide anion release at 10 ug/ml; format: functional, cell-based
Neutrophil = test: Ratio of compound IC50 to PMSF IC50 for antiinflammatory activity in human neutrophils assessed as inhibition of FMLP/CB-induced elastase release; format: functional

Question: Which IC50 (HepG2) does the source give for `COC(=O)[C@H](Cc1ccccc1)NC(=O)[C@@H](NC(=O)OCC1c2ccccc2-c2ccccc21)C(C)C` [IXORAPEPTIDE I] (Fmoc-Val-Phe-OMe) here?
Answer: The IC50 was over 20 µg/mL.

Question: What about the IC50 [1] of the same compound?
Answer: Its IC50 is 29.5 µg/mL (≈ 59 µM).

Question: What about the IC50 [2] of the same compound?
Answer: The IC50 was 3.36 µg/mL (≈ 6.71 µM).

Question: And the IC50 [3]?
Answer: Its IC50 is 20.5 µg/mL (≈ 41 µM).

Question: And the IC50 (Ca9-22)?
Answer: The IC50 was 20 µg/mL (≈ 40 µM).

Question: What about the IC50 (A549) of the same compound?
Answer: The IC50 was over 20 µg/mL.

Question: And the IC50 (MDA-MB-231)?
Answer: The IC50 was over 20 µg/mL.

Question: And the IC50 (MCF7)?
Answer: The IC50 was over 20 µg/mL.

Question: Which results are given for `Oc1cc(O)c2c(c1)O[C@H](c1ccc(O)c(O)c1)[C@@H](O)C2` [CIANIDANOL]?
Answer: IC50 [1]: 27.6 µg/mL (≈ 95.3 µM); IC50 [3]: > 50 µg/mL

Question: For `COc1cc2ccc(=O)oc2cc1O` [SCOPOLETIN], which IC50 [1] is on record?
Answer: The IC50 was 41.7 µg/mL (≈ 217 µM).

Question: What about the IC50 [3] of the same compound?
Answer: Its IC50 is over 50 µg/mL.

Question: Which IC50 [1] does the source give for `Oc1cc(O)c2c(c1)O[C@H](c1ccc(O)c(O)c1)[C@H](O)C2` [(-)-EPICATECHIN] here?
Answer: Its IC50 is 22.2 µg/mL (≈ 76.5 µM).

Question: And the IC50 [3]?
Answer: Its IC50 is over 50 µg/mL.

Question: Which IC50 (HepG2) does the source give for `CC1(C)CC[C@]2(C(=O)O)CC[C@]3(C)C(=CC[C@@H]4[C@@]5(C)CCC(=O)C(C)(C)[C@@H]5CC[C@]43C)[C@@H]2C1` [OLEANONIC ACID] here?
Answer: The IC50 was over 20 µg/mL.

Question: And the IC50 [2]?
Answer: The IC50 was over 20 µg/mL.

Question: And the IC50 (Ca9-22)?
Answer: The IC50 was 18 µg/mL (≈ 39.7 µM).

Question: What about the IC50 (A549) of the same compound?
Answer: The IC50 was over 20 µg/mL.

Question: And the IC50 (MDA-MB-231)?
Answer: The IC50 was over 20 µg/mL.

Question: And the IC50 (MCF7)?
Answer: The IC50 was over 20 µg/mL.

Question: Which IC50 (HepG2) does the source give for `O=c1c(O)c(-c2ccc(O)cc2)oc2cc(O)cc(O)c12` [KAEMPFEROL] here?
Answer: Its IC50 is over 20 µg/mL.

Question: What about the IC50 [1] of the same compound?
Answer: Its IC50 is 3.55 µg/mL (≈ 12.4 µM).

Question: What about the IC50 [2] of the same compound?
Answer: Its IC50 is 17.7 µg/mL (≈ 62 µM).

Question: And the IC50 [3]?
Answer: The IC50 was over 50 µg/mL.

Question: And the IC50 (Ca9-22)?
Answer: The IC50 was over 20 µg/mL.

Question: What about the IC50 (A549) of the same compound?
Answer: Its IC50 is over 20 µg/mL.

Question: What about the IC50 (MDA-MB-231) of the same compound?
Answer: Its IC50 is over 20 µg/mL.

Question: What about the IC50 (MCF7) of the same compound?
Answer: Its IC50 is over 20 µg/mL.

Question: Which results are given for `C[C@H]1O[C@H](Oc2cc(O)c3c(=O)c(O)c(-c4ccc(O)cc4)oc3c2)[C@@H](O)[C@@H](O)[C@@H]1O`?
Answer: IC50 [1]: 34.8 µg/mL (≈ 80.4 µM); IC50 [3]: > 50 µg/mL

Question: With `Oc1ccc([C@]23Oc4cc(O)cc(O)c4[C@H](c4c(cc(O)c5c4O[C@@H](c4ccc(O)c(O)c4)[C@@H](O)C5)O2)[C@H]3O)cc1` as the compound, how does the “inhibition (INH)” value [4] read?
Answer: The value was 2.5%.

Question: What does the source list for `CC(=O)OC[C@]1(C)CCC[C@]2(C)[C@@H]1CC[C@]13C[C@H](CC[C@H]12)[C@@H](C(=O)O)C3`?
Answer: IC50 [5]: 5.11 µg/mL (≈ 14.1 µM); inhibition at 10 µg/mL [6]: 44.7%

Question: What does the source list for `C[C@@H]1O[C@@H](Oc2cc(O)c3c(=O)c(O[C@@H]4O[C@@H](C)[C@H](O)[C@@H](O)[C@H]4O)c(-c4ccc(O)cc4)oc3c2)[C@H](O)[C@H](O)[C@H]1O` [KAEMPFERITRIN]?
Answer: inhibition at 10 µg/mL [7]: 8.27%; inhibition at 10 µg/mL [6]: 12.5%

Question: For `C=C(C)[C@@H]1CC[C@]2(C(=O)O)CC[C@]3(C)[C@H](CC[C@@H]4[C@@]5(C)CCC(=O)C(C)(C)[C@@H]5CC[C@]43C)[C@@H]12` [BETUNOLIC ACID], which IC50 (HepG2) is on record?
Answer: Its IC50 is 4.32 µg/mL (≈ 9.5 µM).

Question: What about the IC50 [1] of the same compound?
Answer: The IC50 was 44.7 µg/mL (≈ 98.3 µM).

Question: And the IC50 [2]?
Answer: Its IC50 is 13.8 µg/mL (≈ 30.4 µM).

Question: What about the IC50 [3] of the same compound?
Answer: The IC50 was over 50 µg/mL.

Question: What about the IC50 [8] of the same compound?
Answer: Its IC50 is 128 µg/mL (≈ 281 µM).

Question: What about the IC50 [9] of the same compound?
Answer: Its IC50 is 16.8 µg/mL (≈ 36.9 µM).

Question: And the IC50 (Ca9-22)?
Answer: The IC50 was 14.5 µg/mL (≈ 31.8 µM).

Question: What about the IC50 (A549) of the same compound?
Answer: The IC50 was 8.93 µg/mL (≈ 19.6 µM).

Question: And the IC50 (MDA-MB-231)?
Answer: Its IC50 is over 20 µg/mL.

Question: And the IC50 (MCF7)?
Answer: The IC50 was 19.3 µg/mL (≈ 42.5 µM).

Question: Which results are given for `O=c1cc(-c2ccc(O)c(O)c2)oc2cc(O)cc(O)c12` [LUTEOLIN]?
Answer: IC50 (HepG2): 7.36 µg/mL (≈ 25.7 µM); IC50 [1]: 2.56 µg/mL (≈ 8.94 µM); IC50 [2]: 8.03 µg/mL (≈ 28.1 µM); IC50 [3]: > 50 µg/mL; IC50 (Ca9-22): 8.55 µg/mL (≈ 29.9 µM); IC50 (A549): 10.2 µg/mL (≈ 35.7 µM); IC50 (MDA-MB-231): 9.65 µg/mL (≈ 33.7 µM); IC50 (MCF7): 9.5 µg/mL (≈ 33.2 µM)

Question: What does the source list for `COc1cccc2c1C(=O)c1c(O)c3c(c(O)c1C2=O)C[C@@](O)(C(=O)CO)C[C@@H]3O[C@H]1C[C@H](N)[C@H](O)[C@H](C)O1` [DOXORUBICIN]?
Answer: IC50 (HepG2): 0.23 µg/mL (≈ 0.423 µM); IC50 [2]: 0.42 µg/mL (≈ 0.773 µM); IC50 (Ca9-22): 14.5 µg/mL (≈ 26.6 µM); IC50 (A549): 0.63 µg/mL (≈ 1.16 µM); IC50 (MDA-MB-231): 1.32 µg/mL (≈ 2.43 µM)

Question: What does the source list for `C[C@@]1(CO)CCC[C@]2(C)[C@@H]1CC[C@]13C[C@H](CC[C@H]12)[C@@H](C(=O)O)C3`?
Answer: inhibition at 10 µg/mL [7]: 31.8%; inhibition at 10 µg/mL [6]: 15.6%

Question: Which IC50 [5] does the source give for `c1ccc2c(c1)[I+]c1ccccc1-2` [DIPHENYLENEIODONIUM] here?
Answer: Its IC50 is 0.35 µg/mL.

Question: Which IC50 [4] does the source give for `O=S(=O)(F)Cc1ccccc1` [PHENYLMETHYLSULFONYLFLUORIDE] here?
Answer: Its IC50 is 19.9 µg/mL (≈ 114 µM).

Question: Which IC50 (HepG2) does the source give for `C=C(C)[C@@H]1CC[C@]2(C)CC[C@]3(C)[C@H](CC[C@@H]4[C@@]5(C)CC[C@H](O)C(C)(C)[C@@H]5CC[C@]43C)[C@@H]12` [LUPEOL] here?
Answer: Its IC50 is 19.8 µg/mL (≈ 46.4 µM).

Question: What about the IC50 [2] of the same compound?
Answer: Its IC50 is 18.8 µg/mL (≈ 44.1 µM).

Question: And the IC50 (Ca9-22)?
Answer: The IC50 was 16.8 µg/mL (≈ 39.3 µM).

Question: And the IC50 (A549)?
Answer: The IC50 was over 20 µg/mL.

Question: What about the IC50 (MDA-MB-231) of the same compound?
Answer: Its IC50 is over 20 µg/mL.

Question: What about the IC50 (MCF7) of the same compound?
Answer: The IC50 was over 20 µg/mL.

Question: Which results are given for `CC(=O)Oc1ccccc1C(=O)O` [ASPIRIN]?
Answer: IC50 [1]: 13.6 µg/mL (≈ 75.4 µM); IC50 [3]: > 50 µg/mL

Question: Which IC50 [1] does the source give for `C[C@H]1[C@H](C)CC[C@]2(C(=O)O)CC[C@]3(C)C(=CC[C@@H]4[C@@]5(C)CC[C@H](O)C(C)(C)[C@@H]5CC[C@]43C)[C@H]12` [URSOLIC ACID] here?
Answer: The IC50 was 34.5 µg/mL (≈ 75.6 µM).

Question: What about the IC50 [3] of the same compound?
Answer: The IC50 was over 50 µg/mL.

Question: And the IC50 [4]?
Answer: Its IC50 is 0.31 µg/mL (≈ 0.679 µM).

Question: And the IC50 [5]?
Answer: Its IC50 is 0.29 µg/mL (≈ 0.635 µM).

Question: Which results are given for `CCCCCCCCCCCCCCCCCCCC(=O)OCC(O)CO` (centres undefined)?
Answer: IC50 [5]: 2.47 µg/mL (≈ 6.39 µM); inhibition at 10 µg/mL [6]: 41.8%

Question: Which “Ratio IC50” value (Neutrophil) does the source give for `CC[C@H](C)[C@H](NC(=O)C(NC(=O)[C@H](Cc1ccccc1)N(C)C)C(C(C)C)n1ccc2ccccc21)C(=O)O` (some centres undefined) [IXORAPEPTIDE II] here?
Answer: Its value is 73.

Question: And the IC50 [4]?
Answer: The IC50 was 0.27 µg/mL (≈ 0.505 µM).

Question: What about the IC50 [5] of the same compound?
Answer: The IC50 was 0.21 µg/mL (≈ 0.393 µM).
